{
  "source": "patent US20240197700A1",
  "about": "“Methods and Compositions for Treating Lysosomal Storage Disorders” (Sanford Health, priority 2021, published 2024)",
  "key": {"NCL PNCs": {"system": "NCL PNCs", "test": "LysoTracker signal in Batten disease primary neuronal cultures", "format": "cell-based, mouse", "method": "(§1) Specific experimental details are included in figure legends. In general, after collection and preparation, MEFs and PNCs were dosed with vehicle or semaglutide (10 nM, 100 nM. or 1 μM) on DIV3 and DIV5. On DIV7, cells were exposed to the following dyes: Hoechst 33342 (1:1000 dilution), LysoTracker™ Red DND-99 (1:10,000 dilution), fixed. and imaged. Mice were injected three times per week with vehicle or semaglutide (2.571 μg/mouse, 25.71 μg/mouse) beginning at wean. Body weight was measured at 4, 6, 8, 12, and 16 weeks of age. At 16 weeks of age, Cln3^Δex7/8 mice along with age matched wildtype control mice were CO2 euthanized and intracardially perfused with PBS. Brains were collected and placed on a 1 mm sagittal brain block. Brains were sliced at the midline and 3 mm right of the midline. The 3 mm sagittal piece was flash frozen with −50° C. isopentane and then sectioned on a cryostat at 16 μm and placed on slides. For ASM measurements, slides were counterstained with DAPI. The other hemisphere was fixed in 4% PFA and sectioned at 50 microns on a vibratome. Immunohistochemistry was performed on free-floating sections. For SubC, GFAP, and CD68 immunolabeling, primary antibodies included mitochondrial anti-ATP synthase subunit C (Abcam, ab181243; 1:1000), anti-GFAP (Dako, Z0334; 1:5000), anti-CD68 (AbD Serotec, MCA1957; 1:2000), and secondary antibodies included anti-rabbit biotinylated (Vector Labs, BA-1000 1:1000) and anti-rat (Vector Labs, BA-9400 1:1000). Coverslips were mounted on slides using antifade-mounting media and were stored in the dark before imaging. ASM slides were imaged on a Nikon ECLIPSE™ Ni-E upright microscope with a CoolSNAP™ DYNO camera. Images were extracted from S1BF of the somatosensory cortex, CA3 of the hippocampus, and the VPM/VPL of the thalamus, with multiple images taken of multiple tissues from each animal. IHC slides were imaged and analyzed using an Aperio Digital Pathology Slide Scanner (AT2) and associated software. Images were extracted from the S1BF of the somatosensory cortex, the CA3 of the hippocampus, and the VPM/VPL of the thalamus.\nIn a further experiment, wild type (WT) and mutant primary neuronal cultures (PNCs) were treated with vehicle or semaglutide (10 nM, 100 nM, 1 μM; see FIG. 19). Cells were plated on in vitro day 0 and dosed with drug-containing media on DIV3 and DIV5. Analysis occurred on DIV7. Concentrations of drug are shown on the x-axis above each image column; genotypes are shown to the left of each row. […] Increasing concentrations of AF38469 are shown along the x-axis."}, "NCL MEFs": {"system": "NCL MEFs", "test": "LysoTracker signal in Batten disease mouse embryonic fibroblasts", "format": "cell-based", "method": "Wild type (WT) and mutant cells were treated with vehicle or LM11A-31 (100 nM, 1 μM, 10 μM). Cells were plated on day 0 and dosed with drug-containing media on DIV3 and DIV5. Concentrations of drug are shown on the x-axis above each image column; genotypes are shown to the left of each row. […] Increasing concentrations of LM11A-31 are shown along the x-axis.\nas §1\nThe glucagon-like peptide-1 (GLP-1) analogue, semaglutide is an FDA approved type II diabetes drug. It has been shown in previous reports that GLP1 receptor (GLP1R) agonists decrease the release of inflammatory cytokines by modulating microglial activity, but existing studies have not examined any activity on lysosome-related pathways. To test whether GLP1R agonism would reduce Batten disease pathology, we tested semaglutide in Batten disease cell models (FIGS. 18-19). Wild type (WT) and mutant mouse embryonic fibroblasts (MEFs) were treated with vehicle or semaglutide (10 nM, 100 nM, 1 μM; see FIG. 18). Cells were plated on in vitro day 0 and dosed with drug-containing media on DIV3 and DIV5. Analysis occurred on DIV7. Concentrations of drug are shown on the x-axis above each image column; genotypes are shown to the left of each row. […] Increasing concentrations of semaglutide are shown along the x-axis. […] Treatment with semaglutide (10 nM, 100 nM, 1 μM) had no impact on the accumulation of autofluorescent storage material (ASM) in Cln1^R151X, Cln2^R207X, Cln3^Δex7/8, Cln6^nclf, and Cln8^mnd MEFs (FIG. 18B)."}},
  "data": [
    {"molecule": "Cc1cccc(NC(=O)c2ccc(C(F)(F)F)cc2C(=O)O)n1", "note": "[AF38469, 2-((6-methylpyridin-2-yl)carbamoyl)-5-(trifluoromethyl)benzoic acid]", "values": [
      {"measurement": "LysoTracker signal", "setting": "NCL PNCs; 40 nM and 400 nM, Cln2^R207X PNCs", "result": "had no impact"},
      {"measurement": "LysoTracker signal", "setting": "NCL PNCs; 40 nM, 400 nM, 4 μM, Cln1^R151X and Cln6^nclf PNCs, DIV7", "result": "significantly reduced"},
      {"measurement": "LysoTracker signal", "setting": "NCL PNCs; 40 nM, Cln3^Δex7/8 PNCs", "result": "significantly increased"},
      {"measurement": "LysoTracker signal", "setting": "NCL PNCs; 40 nM, Cln8^mnd PNCs", "result": "significantly increased"},
      {"measurement": "LysoTracker signal", "setting": "NCL PNCs; 400 nM, Cln3^Δex7/8 PNCs", "result": "significantly reduced"},
      {"measurement": "LysoTracker signal", "setting": "NCL PNCs; 400 nM, Cln8^mnd PNCs", "result": "significantly increased"},
      {"measurement": "LysoTracker signal", "setting": "NCL PNCs; 4 μM, Cln2^R207X PNCs", "result": "significantly reduced"},
      {"measurement": "LysoTracker signal", "setting": "NCL PNCs; 4 μM, Cln3^Δex7/8 PNCs", "result": "had no impact"},
      {"measurement": "LysoTracker signal", "setting": "NCL PNCs; 4 μM, Cln8^mnd PNCs", "result": "had no impact"},
      {"measurement": "LysoTracker signal", "setting": "NCL MEFs; 40 nM, 400 nM, 4 μM, Cln1^R151X, Cln2^R207X, Cln6^nclf, Cln8^mnd, Cln11^−/− MEFs, DIV7, vs NCL vehicle", "result": "significantly reduced"},
      {"measurement": "LysoTracker signal", "setting": "NCL MEFs; 40 nM, Cln3^Δex7/8 MEFs, DIV7", "result": "significantly increased"},
      {"measurement": "LysoTracker signal", "setting": "NCL MEFs; 400 nM, Cln3^Δex7/8 MEFs, DIV7", "result": "significantly reduced"},
      {"measurement": "LysoTracker signal", "setting": "NCL MEFs; 4 μM, Cln3^Δex7/8 MEFs, DIV7", "result": "had no impact"}
    ]},
    {"molecule": "CC[C@H](C)[C@H](N)C(=O)NCCN1CCOCC1", "note": "[LM11A-31, N-[2-(morpholin-4-yl)ethyl]-L-isoleucinamide]", "values": [
      {"measurement": "LysoTracker signal", "setting": "NCL PNCs; LM11A-31 100 nM, Cln2^R207X PNCs", "result": "significantly reduced"},
      {"measurement": "LysoTracker signal", "setting": "NCL PNCs; LM11A-31 1 μM, Cln6^nclf PNCs", "result": "significantly reduced"},
      {"measurement": "LysoTracker signal", "setting": "NCL MEFs; LM11A-31 100 nM, NCL MEFs", "result": "had no impact"},
      {"measurement": "LysoTracker signal", "setting": "NCL MEFs; LM11A-31 1 μM (mid dose), Cln1^R151X, Cln2^R207X MEFs", "result": "significantly reduced"},
      {"measurement": "LysoTracker signal", "setting": "NCL MEFs; LM11A-31 1 μM, Cln3^Δex7/8, Cln6^nclf, Cln8^mnd MEFs", "result": "decreasing trend"},
      {"measurement": "LysoTracker signal", "setting": "NCL MEFs; LM11A-31 10 μM, Cln1^R151X and Cln2^R207X MEFs", "result": "decreasing trend"},
      {"measurement": "LysoTracker signal", "setting": "NCL MEFs; LM11A-31 varying doses, Cln3^Δex7/8 and Cln6^nclf MEFs", "result": "decreasing trend"}
    ]},
    {"molecule": "semaglutide", "values": [
      {"measurement": "Lysotracker signal (as printed, FIG. 19B)", "setting": "NCL PNCs; semaglutide 10 nM, 100 nM, 1 μM, Cln2^R207X and Cln6^nclf PNCs", "result": "significantly reduced"},
      {"measurement": "LysoTracker signal", "setting": "NCL PNCs; semaglutide 10 nM, 100 nM, 1 μM, Cln3^Δex7/8 PNCs", "result": "had no impact"},
      {"measurement": "LysoTracker signal", "setting": "NCL PNCs; semaglutide 10 nM, 100 nM, 1 μM, Cln6^nclf and Cln8^mnd PNCs", "result": "significantly reduced"},
      {"measurement": "LysoTracker signal", "setting": "NCL PNCs; semaglutide 10 nM, 1 μM, Cln2^R207X PNCs", "result": "significantly reduced"},
      {"measurement": "LysoTracker signal", "setting": "NCL PNCs; semaglutide 10 nM, Cln1^R151X PNCs", "result": "significantly elevated"},
      {"measurement": "LysoTracker signal", "setting": "NCL PNCs; semaglutide 100 nM, 1 μM, Cln1^R151X PNCs", "result": "significantly reduced"},
      {"measurement": "LysoTracker signal", "setting": "NCL PNCs; semaglutide 100 nM, Cln2^R207X PNCs", "result": "significantly elevated"},
      {"measurement": "LysoTracker signal", "setting": "NCL MEFs; semaglutide 10 nM and 100 nM, Cln8^mnd MEFs", "result": "had no impact"},
      {"measurement": "LysoTracker signal", "setting": "NCL MEFs; semaglutide 10 nM, 100 nM, 1 μM, Cln1^R151X and Cln6^nclf MEFs", "result": "had no impact"},
      {"measurement": "LysoTracker signal", "setting": "NCL MEFs; semaglutide 10 nM, 100 nM, 1 μM, Cln2^R207X MEFs", "result": "significantly reduced"},
      {"measurement": "LysoTracker signal", "setting": "NCL MEFs; semaglutide 10 nM, Cln3^Δex7/8 MEFs", "result": "had no impact"},
      {"measurement": "LysoTracker signal", "setting": "NCL MEFs; semaglutide 100 nM, 1 μM, Cln3^Δex7/8 MEFs", "result": "significantly reduced"},
      {"measurement": "LysoTracker signal", "setting": "NCL MEFs; semaglutide 1 μM, Cln8^mnd MEFs", "result": "significantly reduced"}
    ]}
  ]
}
